Test results taken from PubChem BioAssay AID1208 (EPA DSSTox, 2008).
Active and inactive are the calls of the source.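 How the source made its calls: active means at least one rat sex group has a carcinogenic potency value and tumor site recorded; inconclusive means only rat studies were judged inadequate by the national testing program; inactive means no potency or tumor site, with negative rat experiments.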

System: rat chronic carcinogenicity bioassay, TD50
Assay: DSSTox (CPDBAS) Carcinogenic Potency Database Summary Rat Bioassay Results
Details: for Potency: stronger effect = lower value
In short: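 Chronic long-term rat cancer bioassays from literature and NCI/NTP, taking the most positive result per sex. TD50 in mmol converted to a 1–100 Activity Score from log10(1/TD50). Mixtures lacking TD50 scored 50.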

[1] = TD50_Rat_Note: no positive results, TargetSites_Rat_Female: no positive results
[2] = TD50_Rat_Note: no positive results
[3] = TargetSites_Rat_Female: no positive results
[4] = TargetSites_Rat_BothSexes: all tumor bearing animals
[5] = TD50_Rat_Note: TD50 is harmonic mean of more than one positive test, TargetSites_Rat_Female: kidney, urinary bladder
[6] = TD50_Rat_Note: TD50 is harmonic mean of more than one positive test, TargetSites_Rat_Female: liver

Cc1ccc(N=C=O)cc1N=C=O
Potency (TD50_Rat_Note: TD50 is harmonic mean of more than one positive test, TargetSites_Rat_Female: liver, mammary gland, pancreas, subcutaneous tissue): 33.7 mg/kg/day

C[C@H]1CCCCN1N=O
Potency (TargetSites_Rat_BothSexes: nervous system): 13.2 mg/kg/day

O=CNNc1nc(-c2ccc([N+](=O)[O-])o2)cs1
Potency (TD50_Rat_Note: TD50 is harmonic mean of more than one positive test, TargetSites_Rat_Female: ear Zymbals gland, hematopoietic system, kidney, large intestine, liver, mammary gland, small intestine): 5.06 mg/kg/day

CC(=O)Nc1ccc(CC(=O)O)cc1
outcome [1]: inactive; no positive results

CCC(C(=O)NC(N)=O)c1ccccc1 (stereo not drawn)
outcome [2]: inactive; no positive results

[Cl-].[Cl-].[Hg+2]
Potency [3]: 3.12 mg/kg/day

C=CC1=C(C)C2=CC3=NC(=C(CC(=O)[O-])C4=NC(=C(C)C4=C([O-])[O-])C=c4[n-]c(c(C)c4CC)=CC1=N2)[C@@H](CCC(=O)[O-])[C@@H]3C.[Cu+2].[Na+].[Na+].[Na+]
outcome [1]: inactive; no positive results

O=S(=O)(O)c1c(N=Nc2c(O)ccc3ccccc23)ccc2ccccc12
outcome [1]: inactive; no positive results

C=C(Cl)Cl
outcome [1]: inactive; no positive results

CC(C)NCC(O)COc1cccc2ccccc12 (stereo not drawn)
outcome [1]: inactive; no positive results

O=NN(c1ccccc1)c1ccccc1
Potency (TD50_Rat_Note: TD50 is harmonic mean of more than one positive test, TargetSites_Rat_Female: urinary bladder): 167 mg/kg/day

CC=O
Potency (TD50_Rat_Note: TD50 is harmonic mean of more than one positive test, TargetSites_Rat_Female: nasal cavity): 153 mg/kg/day

CCOC(=O)[C@H](CCc1ccccc1)N[C@@H](C)C(=O)N1Cc2ccccc2C[C@H]1C(=O)O
outcome [1]: inactive; no positive results

NNC(=O)c1ccncc1
Potency (TD50_Rat_Note: TD50 is harmonic mean of more than one positive test, TargetSites_Rat_Female: mammary gland): 150 mg/kg/day

Nc1nc(N)nc(N)n1
Potency [3]: 735 mg/kg/day

Cc1ccc(C)c(C)c1
Potency [3]: 4350 mg/kg/day

CCOC(=O)C1OC1(C)c1ccccc1 (stereo not drawn)
outcome [1]: inactive; no positive results

CNCc1ccc(CSCCNC(=NCC(O)c2ccc(O)cc2)NS(C)(=O)=O)o1 (stereo not drawn)
outcome [1]: inactive; no positive results

Nc1ccc(Cl)cc1
outcome [1]: inactive; no positive results
Potency [3]: 7.62 mg/kg/day

N#Cc1c(Cl)c(Cl)c(Cl)c(C#N)c1Cl
Potency (TD50_Rat_Note: TD50 is harmonic mean of more than one positive test, TargetSites_Rat_Female: kidney): 2270 mg/kg/day

CNC(=O)Oc1cccc2ccccc12
Potency [4]: 14.1 mg/kg/day

O=C1O[C@@H](CN2CCOCC2)CN1/N=C/c1ccc([N+](=O)[O-])o1
Potency (TargetSites_Rat_Female: hematopoietic system, kidney, mammary gland): 6.33 mg/kg/day

NC(=O)Cc1c([O-])on[n+]1Cc1ccccc1
Potency: 4.24 mg/kg/day

O=C(O)c1cc(N=Nc2ccc(S(=O)(=O)Nc3ccccn3)cc2)ccc1O
Potency [5]: 1590 mg/kg/day

Oc1ccc(Cl)cc1Cc1ccccc1
outcome [1]: inactive; no positive results

CC(O)CN(CC(C)O)CC(C)O (stereo not drawn)
outcome [2]: inactive; no positive results

Cc1ccc(C)c(N)c1
Potency: 152 mg/kg/day

O=C(O)CCCC/C=C(\c1ccccc1)c1cccnc1
outcome [1]: inactive; no positive results

CN=C(N)N
outcome [2]: inactive; no positive results

CCOC(N)=O
Potency [4]: 41.3 mg/kg/day

CC(=O)Oc1c(C)c(C)c2c(c1C)CCC(C)(CCCC(C)CCCC(C)CCCC(C)C)O2 (stereo not drawn)
outcome [1]: inactive; no positive results

O=[As]O
outcome (TD50_Rat_Note: no positive results, TargetSites_Rat_BothSexes: no positive results): inactive

CN(N=O)C(=O)c1ccccc1
Potency (TD50_Rat_Note: TD50 is harmonic mean of more than one positive test, TargetSites_Rat_Female: all tumor bearing animals): 3.23 mg/kg/day

CCC[C@@H]1O[C@@H]2C[C@H]3[C@@H]4CCC5=CC(=O)C=C[C@]5(C)[C@H]4[C@@H](O)C[C@]3(C)[C@]2(C(=O)CO)O1
Potency: 0.291 mg/kg/day

NC1=NC(=O)C(c2ccccc2)O1 (stereo not drawn)
outcome [1]: inactive

BrC(Br)Br
Potency (TD50_Rat_Note: TD50 is harmonic mean of more than one positive test, TargetSites_Rat_Female: large intestine): 648 mg/kg/day

NC1CCCCC1
outcome [1]: inactive; no positive results

CC(=O)OC/C=C(\C)CCC=C(C)C
outcome [1]: inactive; no positive results

CN(C)C(=O)COC(=O)Cc1ccc(OC(=O)c2ccc(N=C(N)N)cc2)cc1
outcome [2]: inactive; no positive results

O=NN(CCO)C(=O)NCCCl
Potency (TD50_Rat_Note: TD50 is harmonic mean of more than one positive test, TargetSites_Rat_Female: kidney, liver): 0.356 mg/kg/day

O=C/C=C/O
Potency (TD50_Rat_Note: TD50 is harmonic mean of more than one positive test, TargetSites_Rat_Female: thyroid gland): 122 mg/kg/day

C=CC(OCC)OCC
outcome [1]: inactive; no positive results

Cc1cc(C)c(S(=O)(=O)O)cc1N=Nc1cc(S(=O)(=O)O)c2ccccc2c1O
Potency (TD50_Rat_Note: TD50 is harmonic mean of more than one positive test, TargetSites_Rat_BothSexes: hematopoietic system): 8110 mg/kg/day

[Cl-].[Cl-].[Cl-].[Fe+3]
outcome [1]: inactive; no positive results

O=C(O)c1cc(O)c(O)c(O)c1
outcome [2]: inactive; no positive results

Cc1ccccc1S(N)(=O)=O
Potency (TargetSites_Rat_BothSexes: urinary bladder): 3960 mg/kg/day

O=[N+]([O-])c1ccc2c(c1)Cc1ccccc1-2
Potency: 0.285 mg/kg/day

CC(=O)Nc1ccc(O)cc1
Potency (TD50_Rat_Note: TD50 is harmonic mean of more than one positive test, TargetSites_Rat_Female: liver, urinary bladder): 495 mg/kg/day

C=CC1CC=CCC1 (stereo not drawn)
outcome (TD50_Rat_Note: only experiment is NCI/NTP bioassay inadequate, TargetSites_Rat_Female: NTP bioassay inadequate): ntp bioassay inadequate

C/C=N/O
outcome [2]: inactive; no positive results

CCCCCCCCCCCCCCN(C)N=O
Potency (TD50_Rat_Note: harmonic mean of TD50 includes a value for upper 99% confidence limit from study with 100% tumor incidence but no lifeta): 1.65 mg/kg/day

O=NN1CCCCO1
Potency [4]: 24.3 mg/kg/day

O=C1OC(O)C(C(Cl)Cl)=C1Cl (stereo not drawn)
Potency (TD50_Rat_Note: TD50 is harmonic mean of more than one positive test, TargetSites_Rat_Female: adrenal gland, hematopoietic system, liver, mammary gland, thyroid gland): 0.583 mg/kg/day

NC(=O)CCCCC(N)=O
outcome [1]: inactive; no positive results

C#C[C@]1(OC(C)=O)CC[C@H]2[C@@H]3CCC4=C[C@@H](OC(C)=O)CC[C@@H]4[C@H]3CC[C@@]21C
outcome [1]: inactive

Cc1ccc(S(=O)(=O)Oc2ccc(N=Nc3ccc(-c4ccc(N=Nc5c(O)ccc6cc(S(=O)(=O)O)cc(S(=O)(=O)O)c56)c(C)c4)cc3C)cc2)cc1
Potency (TD50_Rat_Note: TD50 is harmonic mean of more than one positive test, TargetSites_Rat_Female: clitoral gland, ear Zymbals gland, large intestine, liver, lung, oral cavity, skin, small intestine): 3.89 mg/kg/day

Nc1ccc(Cc2ccc(N)c(Cl)c2)cc1Cl
Potency (TD50_Rat_Note: TD50 is harmonic mean of more than one positive test, TargetSites_Rat_Female: liver, lung, mammary gland): 19.3 mg/kg/day
outcome [2]: inactive; no positive results

C=CCOC(=O)c1ccccc1C(=O)OCC=C
outcome [1]: inactive; no positive results

O=CNNc1nc(-c2ccco2)cs1
outcome [1]: inactive

FC(Cl)(Cl)Cl
outcome [1]: inactive; no positive results

NCCNc1cccc2ccccc12
outcome [1]: inactive; no positive results

O=NN1CCCC1
Potency (TD50_Rat_Note: TD50 is harmonic mean of more than one positive test, harmonic mean of TD50 includes a value for upper 99% confidence li, TargetSites_Rat_Female: liver, vascular system): 0.799 mg/kg/day

CC(O)C(=O)O (stereo not drawn)
outcome [1]: inactive; no positive results

Cc1cc(C)nc(-c2ccc([N+](=O)[O-])o2)n1
Potency (TD50_Rat_Note: harmonic mean of TD50 includes a value for upper 99% confidence limit from study with 100% tumor incidence but no lifeta, TargetSites_Rat_Female: kidney, mammary gland, small intestine, stomach, vascular system): 1.39 mg/kg/day

CCOc1ccc(NC(C)=O)cc1[N+](=O)[O-]
outcome [1]: inactive; no positive results

C[C@]12C=CC(=O)C=C1CC[C@@H]1[C@@H]2[C@@H](O)C[C@@]2(C)[C@H]1CC[C@]2(O)C(=O)CO
Potency [3]: 1.53 mg/kg/day

CCOc1ccc(NC(N)=O)cc1
Potency (TargetSites_Rat_BothSexes: liver): 537 mg/kg/day

COc1cc2c(c3oc(=O)c4c(c13)CCC4=O)C1C=COC1O2 (stereo not drawn)
Potency (TD50_Rat_Note: TD50 is harmonic mean of more than one positive test, harmonic mean of TD50 includes a value for upper 99% confidence li, TargetSites_Rat_Female: large intestine, liver): 0.0032 mg/kg/day

Brc1c(Br)c(Br)c(Oc2c(Br)c(Br)c(Br)c(Br)c2Br)c(Br)c1Br
Potency [6]: 3340 mg/kg/day
outcome [1]: inactive; no positive results

Nc1ccc(Oc2ccc(N)cc2)cc1
Potency (TD50_Rat_Note: TD50 is harmonic mean of more than one positive test, TargetSites_Rat_Female: liver, thyroid gland): 9.51 mg/kg/day

O=C(O)c1ccc([N+](=O)[O-])cc1
Potency (TargetSites_Rat_Female: clitoral gland): 287 mg/kg/day

CCCCCCCN
outcome [2]: inactive; no positive results

O=NN1CCCCC1c1cccnc1 (stereo not drawn)
Potency (TD50_Rat_Note: TD50 is harmonic mean of more than one positive test, TargetSites_Rat_Female: esophagus): 11.9 mg/kg/day

Nc1ccc2c(c1)C(=O)c1ccccc1C2=O
Potency [3]: 101 mg/kg/day

NC(=O)OCC(COC(N)=O)c1ccccc1
Potency [6]: 1090 mg/kg/day

Oc1ccccc1O
Potency (TD50_Rat_Note: TD50 is harmonic mean of more than one positive test, harmonic mean of TD50 includes a value for upper 99% confidence li, TargetSites_Rat_Female: stomach): 71.5 mg/kg/day

Brc1cc(Br)c(-c2cc(Br)c(Br)cc2Br)cc1Br
Potency [6]: 0.322 mg/kg/day

CN(C)/N=N/c1nc[nH]c1C(N)=O
Potency (TargetSites_Rat_Female: hematopoietic system, mammary gland, uterus): 0.71 mg/kg/day

Clc1ccc(C(c2ccc(Cl)cc2)C(Cl)Cl)cc1
outcome [1]: inactive; no positive results

O=C(O)CCl
outcome [1]: inactive; no positive results

S=C(SN1CCOCC1)N1CCOCC1
Potency [5]: 90.8 mg/kg/day

Nc1ccc(/C=C/c2ccc(N)cc2S(=O)(=O)O)c(S(=O)(=O)O)c1
outcome [1]: inactive; no positive results

C=C/C=N/O
outcome [1]: inactive; no positive results

O=NN1CSCSC1
outcome [1]: inactive

COC1[C@@H](O[C@@H]2O[C@H](C)[C@@H](O[C@H]3C[C@@](C)(O)[C@H](OC(=O)CC(C)C)[C@H](C)O3)[C@H](N(C)C)[C@H]2O)[C@@H](CC=O)C[C@@H](C)[C@@H](O)/C=C/C=C/C[C@@H](C)OC(=O)C[C@H]1OC(C)=O (stereo partly drawn)
outcome [1]: inactive; no positive results
